Data on 29 compounds can be found in patent US11427548B2 (Arvinas Operations, Inc., priority 2015, dated 2022).

The target in this assay is T1, Androgen Receptor (Homo sapiens, UniProt P10275+P40337, T878A).
T1 construct: Compounds have been evaluated in this assay in LNCaP and/or VCaP cells utilizing similar protocols; endogenous in cells; host or cells: LNCaP cells
In words: Androgen Receptor ELISA assay (PathScan AR ELISA) in LNCaP cells: AR degradation, Dmax and DC50. The class given is cell-based. Conditions: for DC50: concentration that caused 50% Androgen Receptor degradation. For orientation: ELISA stands for enzyme-linked immunosorbent assay.

Where [1] appears, read: highest percentage of Androgen Receptor degradation observed.
[2] abbreviates: highest percentage of Androgen Receptor degradation.

T1 sequence (P10275 whole entry T878A): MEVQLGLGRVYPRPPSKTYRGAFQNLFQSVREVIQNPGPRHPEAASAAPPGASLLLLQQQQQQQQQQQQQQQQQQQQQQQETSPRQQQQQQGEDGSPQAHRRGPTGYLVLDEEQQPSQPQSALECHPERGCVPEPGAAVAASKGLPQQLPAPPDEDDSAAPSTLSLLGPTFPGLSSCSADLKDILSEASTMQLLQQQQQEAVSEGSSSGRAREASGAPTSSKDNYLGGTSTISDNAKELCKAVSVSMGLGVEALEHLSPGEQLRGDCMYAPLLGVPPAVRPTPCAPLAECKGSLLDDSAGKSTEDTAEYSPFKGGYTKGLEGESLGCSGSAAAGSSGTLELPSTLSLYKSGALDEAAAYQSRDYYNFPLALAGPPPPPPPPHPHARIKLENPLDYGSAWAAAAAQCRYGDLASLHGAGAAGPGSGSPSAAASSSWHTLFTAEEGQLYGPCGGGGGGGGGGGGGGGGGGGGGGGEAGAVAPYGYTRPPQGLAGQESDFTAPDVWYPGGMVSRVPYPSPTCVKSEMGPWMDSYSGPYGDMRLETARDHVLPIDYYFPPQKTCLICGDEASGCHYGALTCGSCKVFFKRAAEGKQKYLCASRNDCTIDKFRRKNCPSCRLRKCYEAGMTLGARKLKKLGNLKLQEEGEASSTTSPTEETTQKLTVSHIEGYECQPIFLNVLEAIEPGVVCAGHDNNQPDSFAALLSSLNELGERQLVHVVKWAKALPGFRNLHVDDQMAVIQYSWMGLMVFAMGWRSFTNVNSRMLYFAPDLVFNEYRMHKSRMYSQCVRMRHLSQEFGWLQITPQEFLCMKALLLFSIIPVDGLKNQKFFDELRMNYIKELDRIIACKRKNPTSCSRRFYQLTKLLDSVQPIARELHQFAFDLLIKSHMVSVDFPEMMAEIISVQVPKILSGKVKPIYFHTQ
T1 sequence (P40337 whole entry): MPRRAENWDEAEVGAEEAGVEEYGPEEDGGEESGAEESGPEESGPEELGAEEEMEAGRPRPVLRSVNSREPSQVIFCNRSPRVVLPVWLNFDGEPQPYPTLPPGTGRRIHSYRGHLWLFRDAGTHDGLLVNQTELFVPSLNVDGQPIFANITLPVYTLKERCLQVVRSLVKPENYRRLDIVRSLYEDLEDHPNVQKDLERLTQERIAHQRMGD
T1 sequence (Q15369 whole entry partner): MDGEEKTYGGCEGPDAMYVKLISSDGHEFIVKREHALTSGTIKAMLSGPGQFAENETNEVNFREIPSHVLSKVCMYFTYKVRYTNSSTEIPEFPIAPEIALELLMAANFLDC
T1 sequence (Q15370 whole entry partner): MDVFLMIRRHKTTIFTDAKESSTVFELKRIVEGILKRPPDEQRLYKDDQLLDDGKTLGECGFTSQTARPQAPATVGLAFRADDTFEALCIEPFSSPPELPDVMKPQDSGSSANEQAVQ

On to `Cc1ncsc1-c1ccc(CNC(=O)[C@@H]2C[C@@H](O)CN2C(=O)[C@H](C(C)C)N2Cc3ccc(F)cc3C2=O)c(OCCOCCOCCOc2ccc(N3C(=S)N(c4ccc(C#N)c(C(F)(F)F)c4)C(=O)C3(C)C)cc2)c1` [Example 83, (2S,4R)-N-{[2-(2-{2-[2-(4-{3-[4-cyano-3-(trifluoromethyl)phenyl]-5,5-dimethyl-4-oxo-2-sulfanylideneimidazolidin-1-yl}phenoxy)ethoxy]ethoxy}ethoxy)-4-(4-methyl-1,3-thiazol-5-yl)phenyl]methyl}-1-[(2S)-2-(6-fluoro-1-oxo-2,3-dihydro-1H-isoindol-2-yl)-3-methylbutanoyl]-4-hydroxypyrrolidine-2-carboxamide], for which the DC50 (commonly the midpoint of the concentration-degradation curve) was in the range of 0.051 to 0.5 µM. Moreover, the greatest degradation seen (Dmax) (usually the largest share of the target that was removed) under setting [1] was in the range of 51 to 70%.
`Cc1ncsc1-c1ccc(CNC(=O)[C@@H]2C[C@@H](O)CN2C(=O)[C@H](C(C)C)N2Cc3cccc(C#N)c3C2=O)c(OCCOCCOCCOc2ccc(N3C(=S)N(c4ccc(C#N)c(C(F)(F)F)c4)C(=O)C3(C)C)cc2)c1` [Example 84] came in with a DC50 of 0.051 to 0.5 µM. The compound also registered a Dmax under setting [1] of 51 to 70%.
For `Cc1ncsc1-c1ccc(CNC(=O)[C@@H]2C[C@@H](O)CN2C(=O)[C@H](C(C)C)N2Cc3ccccc3C2=O)c(OCCO[C@H](C)[C@@H](C)OCCOc2ccc(N3C(=S)N(c4ccc(C#N)c(C(F)(F)F)c4)C(=O)C3(C)C)cc2)c1` [Example 85, (2S,4R)-N-{[2-(2-{[(2R,3R)-3-[2-(4-{3-[4-cyano-3-(trifluoromethyl)phenyl]-5,5-dimethyl-4-oxo-2-sulfanylideneimidazolidin-1-yl}phenoxy)ethoxy]butan-2-yl]oxy}ethoxy)-4-(4-methyl-1,3-thiazol-5-yl)phenyl]methyl}-4-hydroxy-1-[(2S)-3-methyl-2-(1-oxo-2,3-dihydro-1H-isoindol-2-yl)butanoyl]pyrrolidine-2-carboxamide], the DC50 was greater than 0.501 µM. The same compound returned a Dmax under setting [1] of 51 to 70%.
As to `Cc1ncsc1-c1ccc(CNC(=O)[C@@H]2C[C@@H](O)CN2C(=O)[C@H](C(C)C)N2Cc3ccccc3C2=O)c(OCCCOCCOCCOc2ccc(N3C(=S)N(c4ccc(C#N)c(C(F)(F)F)c4)C(=O)C3(C)C)cc2)c1` [Example 205], the half-maximal degradation concentration (DC50) is greater than 0.501 µM. Under setting [2], this compound displayed a Dmax of less than 25%.
Regarding `Cc1ncsc1-c1ccc(CNC(=O)[C@@H]2C[C@@H](O)CN2C(=O)[C@H](C(C)C)N2Cc3ccccc3C2=O)c(OCCOCCOc2ccc(N3C(=S)N(c4ccc(C#N)c(C(F)(F)F)c4)C(=O)C3(C)C)cc2)c1` [Example 206], the DC50 is 0.051 to 0.5 µM. This compound returned a Dmax under setting [2] of 51 to 70%.
For `Cc1ncsc1-c1ccc(CNC(=O)[C@@H]2C[C@@H](O)CN2C(=O)[C@H](C(C)C)N2Cc3ccccc3C2=O)c(OCCCCOCCCCOCCCCOc2ccc(N3C(=S)N(c4ccc(C#N)c(C(F)(F)F)c4)C(=O)C3(C)C)cc2)c1` [Example 207] the same measures were 0.051 to 0.5 µM and 26 to 50%.
Consider `Cc1ncsc1-c1ccc(CNC(=O)[C@@H]2C[C@@H](O)CN2C(=O)[C@H](C(C)C)N2Cc3ccccc3C2=O)c(OCCOCCOCCOCCOc2ccc(N3C(=S)N(c4ccc(C#N)c(C(F)(F)F)c4)C(=O)C3(C)C)cc2)c1` [Example 210], for which the half-maximal degradation concentration (DC50) was greater than 0.501 µM. The compound further displayed a maximal degradation (Dmax) under setting [2] of 26 to 50%.
`Cc1ncsc1-c1ccc(CNC(=O)[C@@H]2C[C@@H](O)CN2C(=O)[C@H](C(C)C)N2Cc3ccccc3C2=O)c(OCCOCCOCCOCCOCCOc2ccc(N3C(=S)N(c4ccc(C#N)c(C(F)(F)F)c4)C(=O)C3(C)C)cc2)c1` [Example 211] gave a DC50 of 0.051 to 0.5 µM. The compound also yielded a maximal degradation (Dmax) under setting [2] of 26 to 50%.
Turning to `Cc1ncsc1-c1ccc(CNC(=O)[C@@H]2C[C@@H](O)CN2C(=O)[C@@H](NC(=O)COCCOCCOCCOCCOCCOCCOc2ccc(N3C(=S)N(c4ccc(C#N)c(C(F)(F)F)c4)C(=O)C3(C)C)cc2)C(C)(C)C)cc1` [Example 212], the DC50 is greater than 0.501 µM. This compound gave a Dmax under setting [2] greater than 71%.
Regarding `Cc1ncsc1-c1ccc(CNC(=O)[C@@H]2C[C@@H](O)CN2C(=O)[C@H](C(C)C)N2Cc3ccccc3C2=O)c(OCCOCCOCCCOCCOCCOc2ccc(N3C(=S)N(c4ccc(C#N)c(C(F)(F)F)c4)C(=O)C3(C)C)cc2)c1` [Example 214], the DC50 fell in the range of 0.051 to 0.5 µM. Further, the Dmax under setting [2] is 51 to 70%.
Regarding `Cc1ncsc1-c1ccc(CNC(=O)[C@@H]2C[C@@H](O)CN2C(=O)[C@H](C(C)C)N2Cc3ccccc3C2=O)c(OCCOCCOCCCCOCCOCCOc2ccc(N3C(=S)N(c4ccc(C#N)c(C(F)(F)F)c4)C(=O)C3(C)C)cc2)c1` [Example 215], the 50% degradation concentration (DC50) fell in the range of 0.051 to 0.5 µM. The compound further yielded a Dmax under setting [2] of 26 to 50%.
The matching figures for `Cc1ncsc1-c1ccc(CNC(=O)[C@@H]2C[C@@H](O)CN2C(=O)[C@@H](NC(=O)COCCOCCOCCCOCCOCCOc2ccc(N3C(=S)N(c4ccc(C#N)c(C(F)(F)F)c4)C(=O)C3(C)C)cc2)C(C)(C)C)cc1` [Example 216]: 0.051 to 0.5 µM and 51 to 70%.
`Cc1ncsc1-c1ccc(CNC(=O)[C@@H]2C[C@@H](O)CN2C(=O)[C@@H](NC(=O)COCCOCCOCCCCOCCOCCOc2ccc(N3C(=S)N(c4ccc(C#N)c(C(F)(F)F)c4)C(=O)C3(C)C)cc2)C(C)(C)C)cc1` [Example 217] gave a 50% degradation concentration (DC50) of less than 0.05 µM. The same compound returned a Dmax under setting [2] of 51 to 70%.
For `Cc1ncsc1-c1ccc(CNC(=O)[C@@H]2C[C@@H](O)CN2C(=O)[C@H](C(C)C)N2Cc3ccccc3C2=O)c(OCCOCCOCCCCCOCCOCCOc2ccc(N3C(=S)N(c4ccc(C#N)c(C(F)(F)F)c4)C(=O)C3(C)C)cc2)c1` [Example 218], under setting [2], the greatest degradation seen (Dmax) lay within 26 to 50%.
With `Cc1ncsc1-c1ccc(CNC(=O)[C@@H]2C[C@@H](O)CN2C(=O)[C@H](C(C)C)N2Cc3ccccc3C2=O)c(OCCOCCOCCCCOCCCCOCCOCCOc2ccc(N3C(=S)N(c4ccc(C#N)c(C(F)(F)F)c4)C(=O)C3(C)C)cc2)c1` [Example 219], the Dmax under setting [2] is greater than 71%.
The compound `Cc1ncsc1-c1ccc(CNC(=O)[C@@H]2C[C@@H](O)CN2C(=O)[C@H](C(C)C)N2Cc3ccccc3C2=O)c(OCCOCCOCCCCCOCCCCCOCCOCCOc2ccc(N3C(=S)N(c4ccc(C#N)c(C(F)(F)F)c4)C(=O)C3(C)C)cc2)c1` [Example 220] showed a Dmax under setting [2] of 51 to 70%.
On to `Cc1ncsc1-c1ccc(CNC(=O)[C@@H]2C[C@@H](O)CN2C(=O)[C@@H](NC(=O)COCCOCCOCCCCCOCCOCCOc2ccc(N3C(=S)N(c4ccc(C#N)c(C(F)(F)F)c4)C(=O)C3(C)C)cc2)C(C)(C)C)cc1` [Example 222], for which the greatest degradation seen (Dmax) under setting [2] was 26 to 50%.
Consider `Cc1ncsc1-c1ccc(CNC(=O)[C@@H]2C[C@@H](O)CN2C(=O)[C@@H](NC(=O)COCCOCCCCOCCCCOCCOCCOc2ccc(N3C(=S)N(c4ccc(C#N)c(C(F)(F)F)c4)C(=O)C3(C)C)cc2)C(C)(C)C)cc1` [Example 223], for which the Dmax under setting [2] is 26 to 50%.
For `Cc1ncsc1-c1ccc(CNC(=O)[C@@H]2C[C@@H](O)CN2C(=O)[C@@H](NC(=O)COCCOCCCCCOCCCCCOCCOCCOc2ccc(N3C(=S)N(c4ccc(C#N)c(C(F)(F)F)c4)C(=O)C3(C)C)cc2)C(C)(C)C)cc1` [Example 224], the Dmax under setting [2] is 26 to 50%.
The compound `Cc1ncsc1-c1ccc(CNC(=O)[C@@H]2C[C@@H](O)CN2C(=O)[C@@H](NC(=O)COCCOCCOCCCCCOc2ccc(N3C(=S)N(c4ccc(C#N)c(C(F)(F)F)c4)C(=O)C3(C)C)cc2)C(C)(C)C)cc1` [Example 225] registered a DC50 of less than 0.05 µM. The same compound displayed a Dmax under setting [2] of 51 to 70%.
The matching figures for `Cc1ncsc1-c1ccc(CNC(=O)[C@@H]2C[C@@H](O)CN2C(=O)[C@@H](NC(=O)CCCCCOCCCCOCCCCOc2ccc(N3C(=S)N(c4ccc(C#N)c(C(F)(F)F)c4)C(=O)C3(C)C)cc2)C(C)(C)C)cc1` [Example 227]: less than 0.05 µM and 26 to 50%.
In the case of `Cc1ncsc1-c1ccc(CNC(=O)[C@@H]2C[C@@H](O)CN2C(=O)[C@@H](NC(=O)CCOCCOCCCCCOc2ccc(N3C(=S)N(c4ccc(C#N)c(C(F)(F)F)c4)C(=O)C3(C)C)cc2)C(C)(C)C)cc1` [Example 228], the DC50 is 0.051 to 0.5 µM. The Dmax under setting [2] lay within 51 to 70%.
In turn, `Cc1ncsc1-c1ccc(CNC(=O)[C@@H]2C[C@H](O)CN2C(=O)[C@H](C(C)C)N2Cc3ccccc3C2=O)c(OCCOCCOCCOc2ccc(N3C(=S)N(c4ccc(C#N)c(C(F)(F)F)c4)C(=O)C3(C)C)cc2)c1` [Example 229] gave a DC50 of 0.051 to 0.5 µM. For the same compound, the Dmax under setting [2] was 51 to 70%.
Compound `Cc1ncsc1-c1ccc(CNC(=O)[C@@H]2C[C@@H](O)CN2C(=O)[C@@H](NC(=O)CCNC(=O)CCCc2ccc(N3C(=S)N(c4ccc(C#N)c(C(F)(F)F)c4)C(=O)C3(C)C)cc2)C(C)(C)C)cc1` [Example 231] yielded a DC50 greater than 0.501 µM. Moreover, the Dmax under setting [2] was in the range of 51 to 70%.
Compound `Cc1ncsc1-c1ccc(CNC(=O)[C@@H]2C[C@@H](O)CN2C(=O)[C@@H](NC(=O)CCOCCNC(=O)CCCc2ccc(N3C(=S)N(c4ccc(C#N)c(C(F)(F)F)c4)C(=O)C3(C)C)cc2)C(C)(C)C)cc1` [Example 232] displayed a DC50 greater than 0.501 µM. Besides, under setting [2], the greatest degradation seen (Dmax) lay within 26 to 50%.
Turning to `Cc1ncsc1-c1ccc(CNC(=O)[C@@H]2C[C@@H](O)CN2C(=O)[C@@H](NC(=O)CCOCCOc2ccc(N3C(=S)N(c4ccc(C#N)c(C(F)(F)F)c4)C(=O)C3(C)C)cc2)C(C)(C)C)cc1` [Example 233], the DC50 was greater than 0.501 µM. The Dmax under setting [2] is 51 to 70%.
For `Cc1ncsc1-c1ccc(CNC(=O)C2C[C@@H](OC(C)(C)C)CN2C(=O)[C@H](C(C)C)N2Cc3ccccc3C2=O)c(OCCOCCOCCOc2ccc(N3C(=O)N(c4ccc(C#N)c(C(F)(F)F)c4)C(=O)C3(C)C)cc2)c1` (stereo partly shown) [Example 234], the 50% degradation concentration (DC50) is 0.051 to 0.5 µM. The greatest degradation seen (Dmax) under setting [2] was 26 to 50%.
In turn, `Cc1ncsc1-c1ccc(CNC(=O)C2C[C@@H](O)CN2C(=O)[C@H](C(C)C)N2Cc3ccccc3C2=O)c(OCCOCCOCCOc2ccc(N3C(=O)N(c4ccc(C#N)c(C(F)(F)F)c4)C(=O)C3(C)C)cc2)c1` (stereo partly shown) [Example 235] registered a DC50 of 0.051 to 0.5 µM. Under setting [2], the maximal degradation (Dmax) was in the range of 51 to 70%.
`Cc1ncsc1-c1ccc(CNC(=O)[C@@H]2C[C@@H](O)CN2C(=O)[C@@H](NC(=O)COCCOc2ccc(N3C(=S)N(c4ccc(C#N)c(C(F)(F)F)c4)C(=O)C3(C)C)cc2)C(C)(C)C)cc1` [Example 236] displayed a DC50 greater than 0.501 µM. This compound also gave a Dmax under setting [2] of 26 to 50%.
